Values after ≈ are worked out from the molar mass of the structure shown. Where two headings read alike, the source gives them in different places. Where a SMILES comes first, the peptide text is derived from it. Bridges are numbered along the chain shown (N, C = ends). [ ]: non-standard residue; d: D form. The star is where a group is joined. Phe(3,5-F2) = N[C@@H](Cc1cc(F)cc(F)c1)C(=O)O; Heptenoyl(2E) = CCCC/C=C/C(=O)*; aThr = C[C@H](O)[C@H](N)C(=O)O; Pip = O=C(O)[C@@H]1CCCCN1
How the values were obtained:
S. aureus USA 300 ΔClpP = assay: Minimal inhibitory concentration, microbroth dilution; type: cell-based, Staphylococcus aureus; settings: ClpP inactivated strain
Method in brief: (§1)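 Compound was diluted twofold in the appropriate broth. Bacterial suspension (approx. 10^5 cfu/mL) was then added in equal volume, giving a maximum test concentration of 200 μM. After aerobic overnight incubation at 37 °C, wells were inspected visually for growth.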

Sa-ClpP = biological target: T1, Sa-ClpP (Staphylococcus aureus, UniProt Q2G036); assay: ClpP activation, EnzCheck Protease Assay with Bodipy-FL casein (second described method); type: biochemical, S. aureus
T1 construct: made in house; host or cells: E. coli BL21 (DE3)
T1 sequence (Q2G036 whole entry): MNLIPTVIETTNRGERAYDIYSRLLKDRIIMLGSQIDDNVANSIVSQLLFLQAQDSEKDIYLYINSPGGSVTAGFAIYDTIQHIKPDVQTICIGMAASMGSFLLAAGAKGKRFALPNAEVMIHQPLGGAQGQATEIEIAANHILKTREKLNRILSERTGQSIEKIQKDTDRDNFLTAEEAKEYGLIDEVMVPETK
Method in brief: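 Sa-ClpP (2 μM in master mix) with Bodipy-FL casein (2 μM in master mix) in Tris-HCl pH 8.0, 0.01% Triton X-100, compounds in 2% DMSO, triplicate. Fluorescence (ex 485/em 520 nm) followed 30 min; degradation slopes normalized to ADEP4 and DMSO controls, EC50 and % activation by four-parameter fit.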

in vitro = settings: CD-1, mouse, microsomes, pH 7.4
Procedure: Compounds were initially prepared by dissolving them into DMSO at a final concentration of 10 mM. NADPH regenerating solutions A and B and mouse liver microsomes (CD-1) were obtained from BD Gentest (Woburn, Mass.). Ninety-six well deep well plates were obtained from MidWest Scientific Inc (Valley Park, Mo.).
Sample preparation for microsomal stability was modified from methods of Di, L., et al., Int J Pharm. 2005 Jun. 13; 297(1-2): 110-9. A set of incubation times of 0, 15, 30, 60, 120, and 240 minutes were used. Mouse liver microsomal solutions were prepared by adding 58 μL of concentrated human or mouse liver microsomes (20 mg/mL protein concentration) to 1.756 mL of 0.1 M potassium phosphate buffer (pH 7.4) and 5 μL of 0.5 M EDTA to make a 0.6381 mg/mL (protein) microsomal solution. NADPH regenerating agent contained 113 μL of NADPH A, 23 μL of NADPH B, and 315 μL of 0.1 M potassium phosphate buffer (pH 7.4). The diluted test compound solutions (2 μL) were each added directly to a 1.79 mL of liver microsomal solution. This solution was mixed and 90 μL was transferred to 6 time points plates (each in triplicate wells). For the time 0 plate, 225 μL of cold acetonitrile with internal standard ([…] warfarin) was added to each well, followed by addition of NADPH regenerating agent (22.5 μL) and no incubation. For other five time points' plate, NADPH regenerating agent (22.5 μL) was added to each well to initiate the reaction. The plates were incubated at 37° C. for the required time, followed by quenching of the reaction by adding 225 μL of cold acetonitrile with internal standard (4 μg/ml warfarin). All of the plates were sealed and mixed well at 600 rpm for 10 minutes followed by centrifugation at 4000 rpm for 20 minutes. The supernatants (120 μL) were transferred to analytical plates for analysis by LCMS. LCMS conditions were described in the materials and instrumentation section above. The metabolic stability is evaluated via the half-life from least-squares fit of the multiple time points based on first-order kinetics.

S. pneumoniae R6 = assay: Minimal inhibitory concentration, microbroth dilution; type: cell-based; settings: Streptococcus pneumoniae, R6; read-out: Minimal Inhibitory Concentration S. pneumoniae R6
Method in brief: (§2)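 Twofold serial dilutions in broth per CLSI M7-A7 microbroth dilution, incubated aerobically overnight at 37° C. MIC read visually as lowest concentration preventing bacterial growth.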

S. pneumoniae DAW27 = assay: as above; type: cell-based; settings: Streptococcus pneumoniae, DAW27, read-out: Minimal Inhibitory Concentration S. pneumoniae DAW27
Method in brief: as §1

E. coli K12ΔtolC = assay: as above; type: cell-based
Method in brief: as §1

E. faecails ATCC 33186 = assay: as above; type: cell-based; settings: Enterococcus faecalis, ATCC33186, read-out: Minimal Inhibitory Concentration E. faecails ATCC 33186
Method in brief: as §1

S. pyogenes ATCC 700294 = assay: as above; type: cell-based; settings: Streptococcus pyogenes, ATCC700294, read-out: Minimal Inhibitory Concentration S. pyogenes ATCC 700294
Method in brief: as §2

[1] = read-out: ClpP Activation EC50 (converted)

CCCC/C=C/C(=O)N[C@@H](Cc1cc(F)cc(F)c1)C(=O)N[C@@H]1C(=O)N2CCC[C@H]2C(=O)N2CCCC[C@H]2C(=O)N[C@@H](C)C(=O)N2CCC[C@H]2C(=O)O[C@H]1C [ADEP 2719, reference compound] ({Heptenoyl(2E)}-[Phe(3,5-F2)][aThr]P[Pip]AP; ester 2-C)
Minimal Inhibitory Concentration S. aureus USA 300 ΔClpP (S. aureus USA 300 ΔClpP): 500 µM | EC50 (Sa-ClpP; [1]): 380 ± 10 nM | half-life (in vitro): 0.1 h | MIC (S. pneumoniae R6): < 0.2 µM

C[C@@H]1C[C@H]2C(=O)OC[C@H](NC(=O)[C@H](Cc3ccccc3)NC(=O)Nc3ccc(Cl)cc3)C(=O)N3CCC[C@H]3C(=O)N3CCCC[C@H]3C(=O)N[C@@H](C)C(=O)N2C1 [Compound 3, (S)-2-(3-(4-Chlorophenyl)Ureido)-N-((2R,6S,8aS,14aS,20S,23aS)-2,6-Dimethyl-5,8,14,19,23-Pentaoxooctadecahydro-1H,5H,14H,19H-Pyrido[2,1-I]Dipyrrolo[2,1-C:2′,1′-L][1]Oxa[4,7,10,13]Tetraazacyclohexadecin-20-Yl)-3-Phenylpropanamide]
EC50 (Sa-ClpP; [1]): 1500 nM | MIC (S. pneumoniae DAW27): 0.2 µM (≈ 0.156 µg/mL) | Minimal Inhibitory Concentration E. coli K12ΔtolC (E. coli K12ΔtolC): 25 µM | MIC (E. faecails ATCC 33186): 0.2 µM (≈ 0.156 µg/mL) | MIC (S. pyogenes ATCC 700294): 0.39 µM (≈ 0.304 µg/mL)

C[C@@H]1C[C@H]2C(=O)OC[C@H](NC(=O)[C@H](Cc3ccccc3)NC(=O)Nc3ccc(N(C)C)cc3)C(=O)N3CCC[C@H]3C(=O)N3CCCC[C@H]3C(=O)N[C@@H](C)C(=O)N2C1 [Compound 5, (S)—N-((2R,6S,8aS,14aS,20S,23aS)-2,6-Dimethyl-5,8,14,19,23-Pentaoxooctadecahydro-1H,5H,14H,19H-Pyrido[2,1-1]Dipyrrolo[2,1-C:2′,1′-L][1]Oxa[4,7,10,13]Tetraazacyclohexadecin-20-Yl)-2-(3-(4-(Dimethylamino)Phenyl)Ureido)-3-Phenylpropanamide]
EC50 (Sa-ClpP; [1]): 1500 nM | MIC (S. pneumoniae DAW27): 0.39 µM (≈ 0.307 µg/mL) | Minimal Inhibitory Concentration E. coli K12ΔtolC (E. coli K12ΔtolC): 50 µM | MIC (E. faecails ATCC 33186): 0.78 µM (≈ 0.614 µg/mL) | MIC (S. pyogenes ATCC 700294): 0.78 µM (≈ 0.614 µg/mL)

COc1ccc(NC(=O)N[C@@H](Cc2ccccc2)C(=O)N[C@H]2COC(=O)[C@@H]3C[C@@H](C)CN3C(=O)[C@H](C)NC(=O)[C@@H]3CCCCN3C(=O)[C@@H]3CCCN3C2=O)cc1 [Compound 6, (S)—N-((2R,6S,8aS,14aS,20S,23aS)-2,6-Dimethyl-5,8,14,19,23-Pentaoxooctadecahydro-1H,5H,14H,19H-Pyrido[2,1-1]Dipyrrolo[2,1-C:2′,1′-L][1]Oxa[4,7,10,13]Tetraazacyclohexadecin-20-Yl)-2-(3-(4-Methoxyphenyl)Ureido)-3-Phenylpropanamide]
EC50 (Sa-ClpP; [1]): 800 nM | MIC (S. pneumoniae DAW27): 0.2 µM (≈ 0.155 µg/mL) | Minimal Inhibitory Concentration E. coli K12ΔtolC (E. coli K12ΔtolC): 50 µM | MIC (E. faecails ATCC 33186): 0.78 µM (≈ 0.604 µg/mL) | MIC (S. pyogenes ATCC 700294): 0.39 µM (≈ 0.302 µg/mL)

C[C@@H]1C[C@H]2C(=O)OC[C@H](NC(=O)[C@H](Cc3ccccc3)NC(=O)Nc3ccccc3Cl)C(=O)N3CCC[C@H]3C(=O)N3CCCC[C@H]3C(=O)N[C@@H](C)C(=O)N2C1 [Compound 7, (S)-2-(3-(2-Chlorophenyl)Ureido)-N-((2R,6S,8aS,14aS,20S,23aS)-2,6-Dimethyl-5,8,14,19,23-Pentaoxooctadecahydro-1H,5H,14H,19H-Pyrido[2,1-I]Dipyrrolo[2,1-C:2′,1′-L][1]Oxa[4,7,10,13]Tetraazacyclohexadecin-20-Yl)-3-Phenylpropanamide]
EC50 (Sa-ClpP; [1]): 1600 nM | MIC (S. pneumoniae DAW27): 0.78 µM (≈ 0.607 µg/mL) | Minimal Inhibitory Concentration E. coli K12ΔtolC (E. coli K12ΔtolC): 200 µM | MIC (E. faecails ATCC 33186): 3.13 µM (≈ 2.44 µg/mL) | MIC (S. pyogenes ATCC 700294): 3.13 µM (≈ 2.44 µg/mL)

C[C@@H]1C[C@H]2C(=O)OC[C@H](NC(=O)[C@H](Cc3ccccc3)NC(=O)Nc3cccc(Cl)c3)C(=O)N3CCC[C@H]3C(=O)N3CCCC[C@H]3C(=O)N[C@@H](C)C(=O)N2C1 [Compound 9, (S)-2-(3-(3-Chlorophenyl)Ureido)-N-((2R,6S,8aS,14aS,20S,23aS)-2,6-Dimethyl-5,8,14,19,23-Pentaoxooctadecahydro-1H,5H,14H,19H-Pyrido[2,1-I]Dipyrrolo[2,1-C:2′,1′-L][1]Oxa[4,7,10,13]Tetraazacyclohexadecin-20-Yl)-3-Phenylpropanamide]
EC50 (Sa-ClpP; [1]): 1100 nM | MIC (S. pneumoniae DAW27): 0.78 µM (≈ 0.607 µg/mL) | Minimal Inhibitory Concentration E. coli K12ΔtolC (E. coli K12ΔtolC): 25 µM | MIC (E. faecails ATCC 33186): 1.56 µM (≈ 1.21 µg/mL) | MIC (S. pyogenes ATCC 700294): 1.56 µM (≈ 1.21 µg/mL)

C[C@@H]1C[C@H]2C(=O)OC[C@H](NC(=O)[C@H](Cc3ccccc3)NC(=O)Nc3ccc4c(c3)CCN4C)C(=O)N3CCC[C@H]3C(=O)N3CCCC[C@H]3C(=O)N[C@@H](C)C(=O)N2C1 [Compound 11, (S)—N-((2R,6S,8aS,14aS,20S,23aS)-2,6-Dimethyl-5,8,14,19,23-Pentaoxooctadecahydro-1H,5H,14H,19H-Pyrido[2,1-I]Dipyrrolo[2,1-C:2′,1′-L][1]Oxa[4,7,10,13]Tetraazacyclohexadecin-20-Yl)-2-(3-(1-Methylindolin-5-Yl)Ureido)-3-Phenylpropanamide]
EC50 (Sa-ClpP; [1]): 1100 nM | MIC (S. pneumoniae DAW27): 0.3 µM (≈ 0.24 µg/mL) | MIC (E. faecails ATCC 33186): 0.6 µM (≈ 0.479 µg/mL) | MIC (S. pyogenes ATCC 700294): 0.6 µM (≈ 0.479 µg/mL)

C[C@@H]1NC(=O)[C@@H]2CCCCN2C(=O)[C@@H]2CCCN2C(=O)[C@@H](NC(=O)[C@H](Cc2cc(F)cc(F)c2)NC(=O)Nc2ccc3c(c2)OCO3)[C@H](C)OC(=O)[C@@H]2CCCN2C1=O [Compound 17, (S)-2-(3-(Benzo[D][1,3]Dioxol-5-Yl)Ureido)-3-(3,5-Difluorophenyl)-N-((6S,8aS,14aS,20S,21 S,23aS)-6,21-Dimethyl-5,8,14,19,23-Pentaoxooctadecahydro-1H,5H,14H,19H-Pyrido[2,1-I]Dipyrrolo[2,1-C:2′,1′-L][1]Oxa[4,7,10,13]Tetraazacyclohexadecin-20-Yl)Propanamide]
Minimal Inhibitory Concentration S. aureus USA 300 ΔClpP (S. aureus USA 300 ΔClpP): 200 µM | EC50 (Sa-ClpP): 720 nM | half-life (in vitro): 8.1 ± 1.1 h | MIC (S. pneumoniae R6): 0.8 µM (≈ 0.659 µg/mL)

C[C@H]1C[C@H]2C(=O)O[C@@H](C)[C@H](NC(=O)[C@H](Cc3cc(F)cc(F)c3)NC(=O)Nc3ccc4c(c3)OCO4)C(=O)N3CCC[C@H]3C(=O)N3CCCC[C@H]3C(=O)N[C@@H](C)C(=O)N2C1 [Compound 20, (S)-2-(3-(Benzo[D][1,3]Dioxol-5-Yl)Ureido)-3-(3,5-Difluorophenyl)-N-((2R,6S,8aS,14aS,20S,21 S,23aS)-2,6,21-Trimethyl-5,8,14,19,23-Pentaoxooctadecahydro-1H,5H,14H,19H-Pyrido[2,1-I]Dipyrrolo[2,1-C:2′,1′-L][1]Oxa[4,7,10,13]Tetraazacyclohexadecin-20-Yl)Propanamide]
Minimal Inhibitory Concentration S. aureus USA 300 ΔClpP (S. aureus USA 300 ΔClpP): 200 µM | EC50 (Sa-ClpP): 360 nM | half-life (in vitro): 6.9 ± 1.3 h | MIC (S. pneumoniae R6): < 0.1 µM

Cc1ccc(NC(=O)N[C@@H](Cc2cc(F)cc(F)c2)C(=O)N[C@H]2COC(=O)[C@@H]3C[C@@H](C)CN3C(=O)[C@H](C)NC(=O)[C@@H]3CCCCN3C(=O)[C@@H]3CCCN3C2=O)cc1 [Compound 24, (S)-3-(3,5-Difluorophenyl)-N-((2R,6S,8aS,14aS,20S,23aS)-2,6-Dimethyl-5,8,14,19,23-Pentaoxooctadecahydro-1H,5H,14H,19H-Pyrido[2,1-I]Dipyrrolo[2,1-C:2′,1′-L][1]Oxa[4,7,10,13]Tetraazacyclohexadecin-20-Yl)-2-(3-(P-Tolyl)Ureido)Propanamide]
EC50 (Sa-ClpP; [1]): 400 nM | MIC (S. pyogenes ATCC 700294): 0.5 µM (≈ 0.397 µg/mL)

— patent US9879050B2, “Substituted urea depsipeptide analogs as activators of the CLPP endopeptidase” (priority 2013, dated 2018)
